# Tests used:
# [1] = system: NMDA-induced focal potentials, hippocampal slices; experiment: In Vitro Hippocampal Slice Assay (NMDA-induced focal potentials); format: cell-based, Sprague-Dawley albino rat; conditions: Rattus norvegicus; 100 μM NMDA pressure ejections, recorded in CA1
# Protocol: Hippocampal slices were prepared from male, Sprague-Dawley albino rats (100-300 gm) and maintained as described previously [Ganong, A. H., Lanthorn, T. H., Cotman, C. W., "Kynurenic Acid Synaptic and Acidic Amino Acid-Induced Responses in the Rat Hippocampus and Spinal Cord", Brain Research, 273 170-174 (1983)]. The hippocampus was removed in the cold and sliced to a thickness of 450 microns on a McIlwain tissue chopper in experimental medium (124 mM NaCl, 2.5 mM KCl, 1.0 mM KH2 PO4, 26.4 mM NaHCO3, 2 mM CaCl2, 1.5 mM MgSO4, and 10 mM D-glucose) with 10 mM Hepes. The slices were quickly transferred to a static bath and rinsed with experimental medium (without Hepes) and maintained at 34°-35° C. in a humidified chamber with 95% oxygen and 5% carbon dioxide. As needed, slices were transferred from the static bath to a small perfusion chamber where they were secured with an upper net and completely submerged in a continuously flowing experimental medium (2.0 ml/min). The Schaffer collateral/commissural-CAl (S/C-CAl) synaptic response was stimulated (0.05 Hz; 0.01 msec. single duration shock) with bipolar electrodes (Rhodes, Inc.) from stratum radiatum at the CA2-CA3 border. Evoked field EPSPs and drug-induced focal potentials were recorded in the middle portion of CAl. […]
# hippocampal neurons = experiment: Hypoxia Survival Assay, cultured hippocampal neurons (MTT); format: cell-based, Sprague-Dawley rat; conditions: 50 μM compound
# Protocol: Hippocampal neurons were obtained from embryonic day 17 Sprague-Dawley rats. The brains were removed and the hippocampus dissected, placed in ice-cold Leibovitz L-15 medium, carefully stripped of any remaining meninges, and minced into small pieces using scissors. The tissue was rinsed with calcium-magnesium-free Hanks' Balanced Salt Solution and incubated with 0.25% trypsin (Worthington), 40 μg/ml DNAase (Sigma) for 30 minutes at 36° C. Following incubation, the cells were rinsed with 10% serum-containing medium and dissociated by gentle trituration using a reduced bore diameter Pasteur pipet. […]
# The neuronal survival assay utilized the compound MTT [3-(4,5-dimethylthiazol-2-yl)-2,5-diphenyl tetrazolium bromide], a pale yellow substrate that is cleaved by the mitochondrial enzyme succinate-dehydrogenase to yield a dark blue formazan product. […] The precipitate was then solubilized using 0.08N HCl/isopropanol mixture and the absorbance measured with an ELISA plate reader (Dynatech MR600) using a test wavelength of 570 nm and a reference wavelength of 630 nm. […]
# The cells were grown for 2-3 weeks in 5% CO2 -in-air humidified environment at 36° C. to establish a thick network of neuronal processes with numerous spontaneously active synapses. […] Following 2 hours of exposure to normal O2 tension, the cultures were processed for morphological and quantitive biochemical neuronal cell viability assays.
smiles,measurement,setting,value
"NC(C(=O)O)c1ccc(CP(=O)(O)O)cc1 (centres unmarked) [Example VI, 4-(Phosphonomethyl)phenylglycine]",IC50,[1],4 µM
same,protection of neurons from hypoxic insult,hippocampal neurons,Maximum protection of neurons from hypoxic insult
